Assay results reported in US11254986B2, “Gene signature for immune therapies in cancer” (ALMAC DIAGNOSTICS LIMITED, priority 2015, dated 2022).

Legend:
Format in all cases: cell-based
[1] = test system: HCC1937 parental and HCC1937-BR cells; experiment: Cell viability assay (CellTitre-Glo), determination of cisplatin sensitivity; conditions: HCC1937 BRCA1 mutant cell-line relative to BRCA1 corrected cell-line (HCC1937-BR); FIG. 8D
Method: For measurement of sensitivity to cisplatin, exponentially growing cells were seeded into 96-well plates. […] Cells were incubated in the presence of drug for 96 hours following which time the viability of the cells was assessed using the Promega CellTitre-Glo luminescent cell viability assay. The sensitivity of the cells was calculated as the percentage of vehicle (DMSO) control.

[2] = test system: CXCL10 and CCL5 expression; experiment: qRT-PCR of chemokine expression after DNA damaging agents, paclitaxel or nocodazole; conditions: HeLa, HCC1937 EV and MDA-MB-436 EV cells; IC-50 doses; compared to DMSO control; FIG. 14
Method: Reverse transcription was performed using the First Strand cDNA synthesis kit (Roche). 500 ng of RNA was reverse transcribed according to manufacturer's instructions. Exon-spanning qPCR primers were designed using Roche Universal Probe Library Assay Design Centre and were used at a concentration of 0.5 μM. The following primer sequences were used:
To preform absolute quantification from qPCR, we used a standard curve method. The efficiency of each primer set was derived from the standard curve using the following equation: E=10^(−1/slope)
The product of Reverse Transcription was diluted 1:10 in Nuclease Free Water (NFW). Each 10 μl PCR reaction, consisted of 0.5 μl of 10 μM Forward primer, 0.5 μl of 10 μM Reverse primer, 5 μl of 2× LightCycler® 480 SYBR Green I Master mix (Roche), 1.5 μl NFW and 2.5 μl diluted Reverse Transcription product. These 10 μl reactions were pipetted into wells of a LightCycler® 480 multiwell 96 plate (Roche), the plate was then sealed using clear adhesive film (Roche). The plate was placed into the LightCycler® 480 (Roche) and run with the following protocol. (95° C. for 10 mins, 45 cycles of; 95° C. for 15 secs, 55° C. for 30 secs and 72° C. for 30 secs, finishing with a melt curve for confirmation of primer specificity. All qPCR data was analysed using the LightCycler® 480 software provided by Roche. For analysis, the Cp value from a technical duplicate was calculated and the relative amount of a gene was calculated Cp value to an in-run standard curve. Each mean value was then normalised to the mean concentration of the housekeeping gene PUM1 within the corresponding sample, by dividing the concentration of the target gene by the concentration of the house keeping gene. Relative expression refers to the gene expression levels that have been normalised to the housekeeping gene and made relative to the associated control samples. From these normalized values, the fold changes for each gene were calculated and the average of three individual fold changes were derived from three independent experimental triplicates. The unpaired, two-tailed students T-test available on GraphPad Prism 5.0 software was used to detect statistical significance.
For analysis of effects of ATM, ATR and DNAPK on cytokine expression, cells were seeded in six well plates at ˜60% confluency. Following incubation overnight, small molecule inhibitors of ATM (Ku60019, Selleck Chem) at a dose of 1 μm, ATR (ETP46464, Selleck Chem) at a dose of 5 μm and DNAPK (Nu7441, Selleck Chem) at a dose of 5 μm were added. At 24 hours, RNA and protein samples were obtained for analysis. For analysis of the effects of DNA damaging agents and paclitaxel on cytokine expression, cells were seeded in six well plates at ˜60% confluency. […]

[3] = test system: HeLa, HCC1937 EV and MDA-MB-436 EV cells; experiment: Cell cycle analysis (propidium iodide, flow cytometry); conditions: HeLa, HCC1937 EV and MDA-MB-436 EV cells; IC-50 doses; FIG. 14
Method: For analysis of effects of ATM, ATR and DNAPK on cytokine expression, cells were seeded in six well plates at ˜60% confluency. Following incubation overnight, small molecule inhibitors of ATM (Ku60019, Selleck Chem) at a dose of 1 μm, ATR (ETP46464, Selleck Chem) at a dose of 5 μm and DNAPK (Nu7441, Selleck Chem) at a dose of 5 μm were added. At 24 hours, RNA and protein samples were obtained for analysis. For analysis of the effects of DNA damaging agents and paclitaxel on cytokine expression, cells were seeded in six well plates at ˜60% confluency. Following incubation overnight, IC50 doses of Cisplatin and Paclitaxel (obtained from fresh Pharmacy stock) and Hydroxyurea (Sigma Aldrich) were added for 24 hours to 48 hours. At the appropriate timepoint, RNA and protein samples were obtained for analysis.
Cells were trypsinised and fixed in 70% ethanol, incubated with RNase A and propidium iodide (P1) and analysed using a BD FACSCalibur™ (BD Biosciences, CA, USA). Data was analysed using Flow Jo software to perform cell cycle analysis.

[4] = test system: cytosolic DNA in HeLa cells; experiment: PicoGreen fluorescent staining of double-stranded DNA, confocal microscopy; conditions: IC50 doses, FIG. 19C
Excerpt: We probed cytosolic fractions of DDRD positive cells MDA-436-EV and +BRCA1, and HCC1937-EV and +BRCA1 cells for the presence of Histone H3, and found Histone H3 protein expression was increased in the repair deficient lines (EV) (FIG. 19A, top panel of blots). […] PicoGreen fluorescent staining was used to detect double-stranded DNA (ds-DNA). […] This increase in cytosolic DNA was however not observed in response to treatment with Paclitaxel (HeLa+Paclitaxel IC50) (FIG. 19C).

Row | Structure (SMILES) | sensitivity to cisplatin (cell viability) [1] | CXCL10 and CCL5 relative expression [2] | cell cycle distribution [3] | cytosolic DNA (PicoGreen, confocal microscopy) [4]
1 | N.N.[Cl][Pt][Cl] [cisplatin] | more sensitive | upregulation of CXCL10 and CCL5 expression was stimulated in all cell lines | increased proportion of cells in S phase | increased cytosolic DNA
2 | NC(=O)NO [hydroxyurea, Hydroxyurea] |  | upregulation of CXCL10 and CCL5 expression was stimulated in all cell lines | increased proportion of cells in S phase | increased cytosolic DNA
